According to a melting point compilation (Tetko et al.; mined from patent text by program, amines drawn as free bases though some values may be those of a salt):

melting point [°C]	Compound
120 to 125	CCNC(=O)c1cc2c(c(Cl)c1O)CCN(C(=O)OC(C)(C)C)C[C@@H]2c1ccc(O)cc1
90 to 91	COC(=O)c1ccc(Cl)cc1NC(=O)CSc1ccc(C)c(C)c1
168 to 169	CCn1c(=O)n(CC)c2cc3c(N4CCN(C(=O)Nc5ccc(Oc6ccccc6)cc5)CC4)ncnc3cc21
245 to 247	CCc1nc2c(C)cc(C)nc2n1Cc1ccc(-c2ccccc2-c2c(O)c(=O)c2=O)cc1
200 to 202	CCCCc1ncc(-c2cccc(C(=O)O)c2)n1Cc1ccccc1Cl
120 to 121	Oc1ccc(-c2nc3cc(O)cc(-c4ccco4)c3o2)cc1
211 to 212	O=C(Nc1cccc2c1C(=O)c1c-2n[nH]c1-c1ccc(C(=O)N2CCN(CC3CC3)CC2)s1)NN1CCOCC1
197 to 198	Cc1c2c(c(Cc3ccc(C(C)C)cc3)c(C)c1NC(=O)NC(C)(C)C)OCC2
245 to 246	CCOc1ccc2nc(COc3ccc(CC4SC(=O)NC4=O)cc3)n(C)c2n1 (centres undefined)
147 to 150	Cc1noc(NS(=O)(=O)c2ccccc2-c2cccnc2)c1C
356 to 359	O=C(O)CCNc1c2ccc(Cl)cc2nc2c(=O)[nH][nH]c(=O)c12
211 to 213	Nc1cc(N2CCCC2)c2c(Cl)ccc3c2c1C(=O)N(O)C3=O
> 400	O=C(O)c1ccc(-c2ccc(C(=O)O)cn2)nc1
178 to 200	O=C(CC1CCCCC1)Nc1c(Cl)ccc2nc(N3CC[C@H](NS(=O)(=O)C(F)(F)F)C3)ccc12
167 to 172	COc1ccc(Cn2ncnc2CN2C(=O)c3ccccc3C2=O)cc1
88 to 90	CN(C)CCNC(=O)N1CCN(c2ccccc2)CC1
136 to 137	CC(C)(C)OC(=O)CN1CC(c2ccc(F)cc2)CCC(N=[N+]=[N-])C1=O (centres undefined)
218 to 223	CCOC(=O)c1ccc(NN2CN(Nc3ccc(C(=O)OCC)cc3)CN(Nc3ccc(C(=O)OCC)cc3)C2)cc1
127 to 128	O=C(F)[C@@H]1C[C@H](F)CN1C(=O)OCC1c2ccccc2-c2ccccc21
182	CCCCCCCNC(=O)Nc1ccccc1C(=O)NC1CCN(C(c2ccccc2)c2ccccc2)CC1
216	Cc1nc(NC(=O)c2cnn3c(C(F)F)cc(-c4ccc(C(F)(F)F)cc4)nc23)sc1S(=O)(=O)N(C)CCO
120 to 122	COc1cccc(-c2cc(Cl)cc3c2OC(CN)C3)c1OC (centres undefined)
255	CN1C(C(=O)NC2N=C3CCSC=C3S2)=C(O)c2ccc3ccccc3c2S1(=O)=O (centres undefined)
184 to 186	Cc1cccc(C(=O)O)c1N(C)S(=O)(=O)c1ccc(OCCCNC(=O)c2cc3ccccc3o2)cc1

melting point [°C]	Compound
158 to 161	CN(C)C1CCC(Nc2nc3cc(Cl)c(Cl)cc3nc2-c2cccnc2)CC1 (centres undefined)
108 to 109	COCCNC(=O)c1ccnc(-c2cccc3cc(Cc4cccc(C(F)(F)F)c4)sc23)c1
117	O=C(Nc1cccc(Br)c1)Oc1ccc2c(c1)CCCN2Cc1ccccc1
179	CC(C)[C@H](NC(=O)OC(C)(C)C)C(=O)NC1CCC(Nc2cccc3c2C(=O)c2ccccc2C3=O)CC1 (some centres undefined)
271 to 273	O=C(Nc1cccc2cc(C(=O)O)[nH]c12)c1cc(OCc2ccccc2F)cc(OCc2ccccc2F)c1
189	N#Cc1ccc(NC(=O)N[C@@H]2C[C@@H]2c2c(F)cccc2Cl)nc1 (relative stereo)
180 to 182	CN(C)c1cccc2c(S(=O)(=O)Nc3cnc(Br)c(Cl)n3)cccc12
228 to 230	COc1ccc(C2=NNS(=O)(=O)Cc3cc4nsnc4cc32)cc1OC
107	CCOc1ccc2[nH]c(=O)n(CCN3CCOCC3)c2c1
243 to 245	CC(=O)c1cnc2c(NC(=O)c3c(Cl)cccc3Cl)cccc2c1
150 to 152	O=C(CCl)NN1CCOC(c2ccccc2)(c2ccccc2)CC1
208	CCOC(=O)C1=C(C)Nc2nc(N)nc(N3CCOCC3)c2C1c1cccc([N+](=O)[O-])c1 (centres undefined)
230 to 231	Cc1ccc(-c2c(CNC(=O)OC(C)(C)C)n(CC(C)C)c(=O)c3ccc(C(=O)O)cc23)cc1
150 to 152	CC(=O)c1cc(N2CCOCC2)ccc1NC(=O)c1cccc2c1OCO2
137 to 138	CCC(CC)(c1ccc(F)cc1)c1c[nH]c2c(NS(C)(=O)=O)cccc12
194	O=C(Cc1c[nH]c2ccccc12)NCCN1CCC(Nc2nc3ccccc3n2Cc2ccc(F)cc2)CC1
104 to 106	CCOCc1ncccc1CN(CCn1ccc2oc(C)cc2c1=O)Cc1ccc2c(c1)N(C)C(=O)C(C)(C)C(=O)N2CC
153 to 155	COc1cc(C=CC(=O)c2c(OCC=C(C)C)ccc3c(=O)c4ccccc4oc23)cc(OC)c1OC
208 to 209	O=C1NC(=O)c2c1c(-c1ccccc1Cl)cc1c2ccn1CCN1CCCC1
129 to 130	COc1ccc(C2=C(c3ccc(S(C)(=O)=O)cc3)CCC2)cc1
189 to 190	CC(C)(C)C1(O)CCN(C(=O)C2c3ccccc3CCc3ccccc32)CC1
188	CC#CCOc1ccc(S(=O)(=O)C2(C(=O)O)CCN(Cc3ccc(C)cc3)CC2)cc1
111 to 112	CN1c2c(Cl)cc(CC(=O)O)cc2CCC1c1ccccc1 (centres undefined)
153 to 157	CC(COc1ccc(CC2SC(=O)N(C(c3ccccc3)(c3ccccc3)c3ccccc3)C2=O)cc1)NC(=O)OC(C)(C)C (centres undefined)

Second part, the compound before the results:

Compound	melting point [°C]
COc1nc(CO)ccc1CN1CC1C#N (centres undefined)	68 to 70
COC(C)(C)C(C#N)=NO	102 to 104
CN(C)CCCOc1ccc(Nc2nccc(-c3cccnc3)n2)cc1	85 to 87
CCCCCCCCCCCCCCCCCCSC(=O)Nc1ccc(NC(=O)NS(=O)(=O)c2ccc(OC)cc2)cc1	195
CCCCCCCCCCC1(CCCCCCCCCC)c2cc(Br)ccc2-c2ccc(-c3cccs3)cc21	36.9 to 38.4
CC(C)(C#N)c1ccc(C#N)cc1	122 to 123
CC(=O)N1c2ccccc2SC1C#N (centres undefined)	92 to 93
COc1ccc(/C=C(\CSC(C)=O)C(=O)O)cc1	155
N#CNC=NCc1ncc(C(F)(F)F)cc1Cl	106 to 108
Nc1ncc(CCCCc2ccccc2)c(N)n1	126 to 127
CCCCCCC1(CCn2ccnc2)SCCS1	110 to 116
CCOC(=O)[C@H](O)[C@@H](NC(=O)OC(C)(C)C)c1ccc(C)cc1	130
O=CNc1cnc2ccccc2c1Cl	175 to 177
C=Cc1cc2cc(OC)ccc2n1C	87 to 89
N#Cc1ccn2ccccc12	53 to 54
Cc1[nH]c(C=O)c(C)c1CCO	125 to 127
CC1Oc2ccccc2CC1NNc1ncnc2c1ncn2C1OC(CO)C(O)C1O (centres undefined)	90 to 92
COc1ccc(COc2cccc(OC)c2C(=O)C=C(SC)SC)cc1	93 to 94
Cc1nc(C(F)(F)F)ccc1/C=C/C(=O)Nc1ccc2ncsc2c1	196
CCOC(=O)c1ncn2c1CN(C)C(=O)c1c(Br)cccc1-2	214 to 215
COc1cc2ncnc(N3CCc4ccc(-c5ccccc5)cc43)c2cc1OC	175 to 177
CCCCCCCCCCCCCCCCCNC(=O)O[C@@H]1CCO[C@H]1COCc1ccccc1 (relative stereo)	54 to 56
CC(OCc1ccc(-c2ccccc2)cc1)(C(=O)O)C(F)(F)F (centres undefined)	80 to 81
COC(=O)c1ccc(-c2ccc(C#N)cc2)nc1	142 to 144
COc1cc(O)c(C(=O)C=Cc2ccc3c(c2)OCO3)c(OC)c1	162
C/C(=C\c1ccc(C(=O)O)cc1)c1ccc2c(c1)C(C)(C)CC(=O)C2(C)C	249 to 250

Compound	melting point [°C]
O=Cc1ccccc1Oc1ccc(C(F)(F)F)cc1[N+](=O)[O-]	79 to 81
COc1ccc2cc(CCC(C)O)cc(F)c2c1 (centres undefined)	58 to 60
O=C(CS(=O)c1cccs1)C12CC3CC(CC(C3)C1)C2 (centres undefined)	114 to 116
COc1cc(Nc2nccc(-c3sc(NCCc4ccccc4)nc3C)n2)cc(OC)c1	201 to 202
CCOC(=O)C(C)(O)c1ccncc1F (centres undefined)	56 to 60
CCN(CC)C(=O)c1nc(CCl)n(-c2ccc(Cl)cc2C(=O)c2ccccc2)n1	118 to 119
O=C(CCCCCNC(=O)c1cccc2ccccc12)NO	118 to 119
Cc1ccc(N(C)C)cc1C=O	64 to 65
CCCCCCCCCCOc1ccccc1-c1nc(N)c(N=O)c(=O)[nH]1	144 to 146
CC(=O)c1ccc2nccc(OS(=O)(=O)C(F)(F)F)c2c1	94
CC(C)(CC(=O)O)C(Cl)CC(Cl)(Cl)C(F)(F)F (centres undefined)	61
CC1N(C)c2cc([N+](=O)[O-])ccc2C1(C)C (centres undefined)	55 to 59
O=S(=O)(Nc1cccc(CCOCc2ccc(-c3cccc(Cl)c3)cc2)c1)C(F)(F)F	105 to 107
Cc1ccc(S(=O)(=O)Oc2ccc(S(=O)(=O)c3c(C(C)C)cn4ccccc34)cc2)cc1	180 to 183
CC1CCN(c2cc(C(C)(C)C)ns2)C1=O (centres undefined)	111 to 113
CC(C)CCC(=O)N1CCN(C(=O)OC(C)(C)C)CC1	88 to 90.2
NC(=O)c1snnc1C1CC1	163
O=CC=Cc1ccc(O)c(O)c1	200 to 202
ON(Cn1nnc2ccccc21)Cn1nnc2ccccc21	173 to 174
CN(C)C(=O)Cn1nnnc1S	204 to 205
CCOc1cc2c(O)cc(C)nc2nc1C	281 to 284
CCC1=C([N+](=O)[O-])C(c2cccc(Cl)c2Cl)c2c[nH]nc2N1 (centres undefined)	250
CC1(C)CC(=O)C(c2cccc(Cl)c2)C(=O)C1	155 to 158
NC(=O)NCc1ccc(CN(CC(=O)O)C(=O)[C@@H](CCCNC(N)=N[N+](=O)[O-])NC(=O)C(c2ccccc2)c2ccccc2)cc1	78 to 81
COc1nc(OS(=O)(=O)C(F)(F)F)cc2cccnc12	99 to 101
